Experiment [1] has as its system P. acnes NCTC 737. The experiment can be described thus: MIC assay. The class given is cell-based, Propionibacterium acnes. As for the experimental part:
2. Propionibacterium spp.—the principal propionibacterial strain used in these studies was Propionibacterium acnes NCTC 737.
(§1) The Propionibacterium spp organisms were cultured and maintained on Wilkins-Chalgren Anaerobe Medium (agar and broth) at pH 6.0; cultures were incubated anaerobically at 37° C. for 72 hours.
(§2) This is a standard international method for quantitatively assessing the antimicrobial activity of a compound in a liquid medium. The method used a 96-well microtitre plate, capable of holding about 200 μl of liquid per well. […] The culture media were as described above for the relevant test organisms.
(§3) The wells were inoculated with a liquid suspension of freshly grown micro-organism and incubated under the conditions described above. After incubation, the microtitre plate was examined visually (with the aid of a light box) for cloudiness in each well, which would indicate microbial growth. The MIC value was recorded as the lowest concentration of test compound required to inhibit microbial growth, i.e., the lowest concentration for which the liquid in the well remained clear.
(§4) The assays were conducted in duplicate and included both negative (culture medium only) and positive (culture medium, diluting solvent and inoculum) controls.
(§5) MIC, MBC and DDA assays, as described above, were carried out using a range of different benzoquinones and hydroquinones. Supplemented DDA assays, in the presence of salt and lipid, were also conducted.

Experiment [2] has as its system P. acnes NCTC 737. Description: MBC assay. Format: cell-based, Propionibacterium acnes. As for the experimental part: as §1
(§6) This assay, normally carried out after an MIC assay, determines the minimum concentration of a compound that is lethal to the micro-organism being tested.
(§7) These samples were then individually sub-cultured on non-selective agar medium, under the incubation conditions described above. Following incubation they were examined visually for bacterial growth.
as §5

Experiment [3] concerns P. acnes NCTC 737. Description: Supplemented disc diffusion assay. The class given is cell-based, Propionibacterium acnes. To be noted: for zone of inhibition at 200 µg/disc: Cutibacterium acnes, NCTC737, 72 h; for effect of lipid on antimicrobial activity: P. acnes NCTC 737, activity increases in the presence of lipid. As for the experimental part: as §1
(§8) A sterile paper disc was impregnated with a sample of the test compound and a minimum of 30 minutes allowed for the solvents to evaporate as far as possible. The disc was then placed on an agar plate onto which the test micro-organism had been inoculated. The plate was then incubated under the conditions described above, following which it was examined visually for signs of bacterial growth. […] The diameter of this zone of “inhibition” was measured using a ProtoCOL™ automated zone sizer (Synbiosis, Cambridge, UK).
(§9) Performance under these conditions can provide a more reliable indication of activity on topical application. For assays conducted using S. aureus strains, the supplements were defibrinated horse blood (5% v/v), lipid (Tween™ 80 at 1% v/v) and sodium chloride (100 mM). For those using Propionibacterium spp. strains, the supplements were lipid (Tween™ 80 at 1% v/v) and sodium chloride (100 mM).
as §5
(§10) For most DDA assays, 200 μg of each compound was loaded onto each disc.
(In agar diffusion tests the substance spreads into inoculated agar from a disc or well.)

Experiment [4] deals with P. acnes NCTC 737. The experiment can be described thus: Disc diffusion assay (DDA). The class given is cell-based, Propionibacterium acnes. As to conditions: Cutibacterium acnes. As for the experimental part: as §1, §8
(§11) The area of the zone of inhibition was calculated from the measured zone diameter (D) using the formula π(D/2)^2.
as §10

Experiment [5] deals with S. aureus ATCC 29213. The experiment can be described thus: Disc diffusion assay (DDA). The class given is cell-based, Staphylococcus aureus. As to conditions: S. aureus ATCC 29213, unsupplemented agar, 200 μg per disc (thymoquinone 50 μg, 2,6-dimethoxy-p-benzoquinone 100 μg); for zone of inhibition at 200 µg/disc: Staphylococcus aureus, ATCC29213, read-out: DDA (diameter of zone of inhibition). As for the experimental part:
(§12) The staphylococci and enterococci were cultured and maintained on Mueller-Hinton Medium (agar and broth) at pH 7.2; they were incubated aerobically at 37° C. for 24 hours.
as §8, §11, §10

In experiment [6] the test system is S. aureus ATCC 29213. The experiment can be described thus: MBC assay. The class given is cell-based, Staphylococcus aureus. As for the experimental part: as §12, §6, §7
(§13) The following experiments all used S. aureus ATCC 29213 as the test organism. MIC, MBC and DDA assays, as described above, were carried out using a range of different benzoquinones and hydroquinones. Supplemented DDA assays, in the presence of salt, lipid and blood, were also conducted.

In experiment [7] the test system is S. aureus ATCC 29213. The experiment can be described thus: Supplemented disc diffusion assay. Format: cell-based, Staphylococcus aureus. As to conditions: S. aureus ATCC 29213, 200 μg per disc (thymoquinone 50 μg, 2,6-dimethoxy-p-benzoquinone 100 μg); for zone of inhibition at 200 µg/disc: Staphylococcus aureus, ATCC29213, 24 h. As for the experimental part:
as §12, §8, §9, §13, §10

Experiment [8] deals with S. aureus ATCC 29213. Description: MIC assay. Format: cell-based, Staphylococcus aureus. As to conditions: S. aureus ATCC 29213, Mueller-Hinton broth pH 7.2, aerobic, 37° C., 24 hours. As for the experimental part:
1. Staphylococcus aureus—the principal staphylococcal test micro-organism used in these studies was Staphylococcus aureus ATCC 29213. This strain is the one recommended for QC/QA purposes in Minimum Inhibitory Concentration (MIC) assays by the US Clinical and Laboratory Standards Institute (formerly the NCCLS), an FDA-recognised body.
as §12, §2, §3, §4, §13

Setting [9] is: defibrinated horse blood 5% v/v.
Setting [10] is: Staphylococcus aureus, ATCC29213, read-out: MBC.
[11] abbreviates: Tween 80 at 1% v/v, read-out: DDA + lipid.
The mark [12] stands for this setting: defibrinated horse blood 5% v/v, read-out: DDA + blood.
Where [13] appears, read: sodium chloride 100 mM, read-out: DDA + salt.
Setting [14] is: Staphylococcus aureus, ATCC29213, read-out: MIC.

This note sets out measurements from patent US20090030086A1, “ANTIMICROBIAL AGENTS” (priority 2005, published 2009).

Values after ≈ are worked out from the molar mass of the structure shown. Where two headings read alike, the source gives them in different places. Where only a bound is given, the exact number is not on record here.

Usually MIC stands for the smallest concentration in the dilution series that meets the test's criterion for growth inhibition. For orientation: MBC means the lowest tested concentration that kills the bacteria rather than only halting them. Consider `O=C1C(F)=C(F)C(=O)C(F)=C1F` [tetrafluoro-p-benzoquinone], for which the “activity against P. acnes NCTC 737 (in words)” value in experiment [1] is “strongly so”. The compound also showed a minimal inhibitory concentration (MIC) in experiment [1] (Cutibacterium acnes, NCTC737, 72 h, pH 6) of 125 µg/mL (≈ 694 µM). This compound also gave an MBC in experiment [2] (Cutibacterium acnes, NCTC737) of 250 µg/mL (≈ 1390 µM). For the same compound, the MIC/MBC ratio in experiment [2] (P. acnes NCTC 737) is listed as 0.5. In addition, the zone of inhibition at 200 µg/disc worked out at 30.8 mm in experiment [3] (read-out: DDA + lipid); 32.4 mm in experiment [3] (read-out: DDA + salt); 25.9 mm in experiment [4] (NCTC737, read-out: DDA (diameter of zone of inhibition)). Moreover, the “effect of lipid on antimicrobial activity” value in experiment [3] is reported as “potentiated”.

For `O=C1C=CC(=O)C=C1` [p-benzoquinone], the zone of inhibition at 200 µg/disc in experiment [5] turned out to be 29.3 mm; in experiment [4] (NCTC737, P. acnes NCTC 737, unsupplemented agar, 200 μg per disc (2,6-dimethoxy-p-benzoquinone 100 μg), read-out: DDA (diameter of zone of inhibition)), 24.9 mm. Further, the “effect of lipid on antimicrobial activity” value in experiment [3] is recorded as “potentiated”.

Turning to `CC(C)(C)c1cc(O)c(C(C)(C)C)cc1O` [2,5-di-t-butyl-p-hydroquinone], in experiment [6], the MBC is 15.6 µg/mL (≈ 70.2 µM) and the MIC/MBC ratio was found to be 1. For the same compound, the “DDA + lipid” value in experiment [7] (Tween 80 at 1% v/v) was determined as 10.58 mm. Also, in experiment [7] (setting [9]), the “DDA + blood” value came to 10.89 mm. Further, the “DDA + salt” value in experiment [7] (sodium chloride 100 mM) is given as 11.21 mm. Further, the “DDA (diameter of zone of inhibition)” value in experiment [5] was found to be 10.06 mm. Further, the MIC in experiment [8] came out at 15.6 µg/mL (≈ 70.2 µM).

Consider `O=[N+]([O-])c1ccc(O)c(O)c1` [4-nitrocatechol], for which the MIC/MBC ratio in experiment [6] is on record as <0.5. For the same compound, the MBC in experiment [6] (setting [10]) is > 250 µg/mL. Also, the zone of inhibition at 200 µg/disc in experiment [7] (setting [11]) came to 16.5 mm; in experiment [7] (setting [12]) it was 11.8 mm; in experiment [7] (setting [13]), 19 mm; in experiment [5], 18.9 mm. The MIC in experiment [8] (setting [14]) worked out at 125 µg/mL (≈ 806 µM).

With `Cc1cccc(O)c1O` [3-methylcatechol], the MIC/MBC ratio in experiment [6] worked out at 1. Further, the MBC in experiment [6] (setting [10]) worked out at 62.5 µg/mL (≈ 503 µM). Moreover, the zone of inhibition at 200 µg/disc in experiment [7] (setting [11]) worked out at 18.7 mm; in experiment [7] (setting [12]), 0 mm; in experiment [7] (setting [13]) it was 20.2 mm; in experiment [5], 19.8 mm. Also, the MIC in experiment [8] (setting [14]) was 62.5 µg/mL (≈ 503 µM).

As for `Oc1ccc(O)cc1` [p-hydroquinone], the MIC/MBC ratio in experiment [6] is reported as 1. Further, the “DDA (diameter of zone of inhibition)” value in experiment [5] turned out to be 18.94 mm.

`Cc1cc(O)c(C)c(C)c1O` [2,5,6-trimethyl-p-hydroquinone]: in experiment [6], the MBC is 31.25 µg/mL (≈ 205 µM) and the MIC/MBC ratio is on record as 0.25. In addition, the “DDA + lipid” value in experiment [7] (Tween 80 at 1% v/v) is recorded as 56.97 mm. For the same compound, in experiment [7] (setting [9]), the “DDA + blood” value is given as 0.0 mm. In addition, the “DDA + salt” value in experiment [7] (sodium chloride 100 mM) is 61.63 mm. Further, the “DDA (diameter of zone of inhibition)” value in experiment [5] is recorded as 63.40 mm. This compound also yielded an MIC in experiment [8] of 7.8 µg/mL (≈ 51.3 µM).
